Measured values taken from patent publication US5968932A, “Method of inhibiting sleep apnea” (Gruenenthal GmbH, priority 1998, dated 1999).

How the values were obtained:
central nervous system = settings: known compound, background statement; cited from earlier work
[1] = system: bulldog with moderately severe obstructive sleep apnea; assay: Dose study in one bulldog with moderately severe obstructive sleep apnea, Example 2; assay type: in vivo; settings: for non-REM sleep RDI (respiratory disturbance incidents): saline control 6; for Arousal index: saline control 12; for REM sleep RDI (respiratory disturbance incidents): saline control 44; for Lowest O2 saturation: saline control 89; for Mean sleep efficiency: six hours, saline control 39%
Experimental: In a further experiment, Montirelin was administered on different days at varying dosage levels to one bulldog with moderately severe obstructive sleep apnea. In this bulldog, a double-blind study was conducted in which saline was administered as a control and four different doses of Montirelin (100 mg/kg, 200 mg/kg, 400 mg/kg and 800 mg/kg) were administered. The dog was studied on four different days at each dose of the active compound. […] The order of different doses of drug or saline control was randomized, and a wash-out period of two days was allowed after study of a particular dose. During the studies, respiratory movement, oxygen saturation and electroencephalogram for sleep state were measured. The number of sleep-disordered breathing events or respiratory disturbance incidents (RDI) per hour was calculated according to the formula given above both for non-rapid eye movement (non-REM) sleep, which occupies the majority of sleep time, and rapid eye movement (REM) sleep. Mean sleep efficiency and arousal index were also determined.

[2] = system: standard English bulldog test model; assay: English bulldog test model of obstructive sleep apnea (hypersomnolence and sleep disordered breathing), Example 1; assay type: in vivo; settings: 100 μg/kg i.v.; for Sleep disordered breathing index (SDBI): REM events per REM time/60 min; for Total sleep time (TST): eight hour observation
Experimental: Five bulldogs were implanted with subcutaneous electroencephalogram (EEG) electrodes and instrumented with respiratory oscillation belts (Respitrace™) to measure abdominal and ribcage movements and with an ear oximeter to measure oxygen saturation (SaO2). […] Montirelin in a sterile saline vehicle was administered intravenously to the test animals at a dosage of 100 μg/kg. Each test with active substance was preceded by a control day in which only the saline vehicle was administered. The effect of Montirelin on hypersomnolence and sleep disordered breathing was assessed.
Hypersomnolence was determined by sleep latency and total sleep time. Total sleep time (TST) is expressed as a percentage calculated by dividing the total sleep time in minutes by the total study time in minutes and multiplying the resulting quotient by 100 according to the formula: [formula]
Sleep latency was defined as the total minutes until the onset of non-REM sleep.
Sleep disordered breathing was evaluated in terms of a sleep disordered breathing index (SDBI) defined as the total number of rapid eye movement (REM) events divided by a quantity equal to the total REM time divided by 60 minutes according to the formula: [formula] A REM event (apnea) is defined as an incident of decreased or absent respiration and a decrease of 4% or more in the saturated blood oxygen (SaO2) level occurring during REM sleep.

Sprague-Dawley rats = assay: Subacute repeated-dose (five weeks) intravenous toxicity with four-week recovery study in rats; assay type: in vivo, Sprague-Dawley rats (SPF Slc:SD)
Experimental: The subacute repeated-dose intravenous toxicity of Montirelin was investigated in Sprague-Dawley rats treated repeatedly at 0.05, 0.5,5 and 50 mg/kg/day for five weeks, and the reversibility of its toxic effects was also investigated by a four-week recovery study.
[…] SPF Slc:SD rats of both sexes (age: four weeks, body weight: 70.0-81.6 g) were purchased from Shizuoka Agriculture Cooperative Association for Laboratory Animals. During a one-week quarantine/acclimation period, the animals were measured for body weight and observed for any general symptoms, and healthy animals showing normal growth were selected and used in the experiment at the age of five weeks.
Males and females were used in five groups (including the control group) of 10 animals/sex, and additional 10 animals/sex were added to the control, 0.5 mg/kg and 50 mg/kg groups to investigate the reversibility of the toxic effect of the test substance. All these animals were randomized to each group by weight stratification so that the differences in initial mean body weight were within 2% between groups. At the start of the treatment, the body weight was 116.5-132.9 g for males and 107.0-123.4 g for females.
The maximal dose was set at […] lower doses were set at 5, 0.5 and 0.05 mg/kg using a common ratio of 1/10. This study also included the vehicle control group.
Dosing solutions were prepared by dissolving a weighed amount of the test substance in physiological saline at a concentration of 1 W/V % using a volumetric flask. Lower dosing solutions were obtained by successive 10-fold dilution of the initial solution. The respective dosing solution was repeatedly administered intravenously once daily for 35 days into the tail vein at a rate of 0.2 ml/10 sec. using a 1/4 syringe for injection. The treatment was given at a constant volume of 0.5 ml/100 g body weight in all dose groups, and the control group was treated with physiological saline at the same volume in the same manner.
Clinical signs in all animals were observed daily between two and four hours after dosing according to Irwin's method of comprehensive observational assessment, and the type, severity, onset time and disappearance time of toxic symptoms were recorded. During the recovery period, the clinical observation was performed once daily in the morning in the same manner. The body weight, food consumption and water consumption were measured in all animals three times weekly in the morning throughout the treatment and recovery periods and recorded.

In the case of `C[C@H]1SC[C@@H](C(=O)N[C@@H](Cc2c[nH]cn2)C(=O)N2CCC[C@H]2C(N)=O)NC1=O.O.O.O.O` [Montirelin, (3R, 6R) -N-[(6-methyl-5-oxo-3-thiomorpholinyl)carbonyl]-L-histidyl-L-prolinamide tetrahydrate], the “Central nervous system effect” value (central nervous system) is given as “exhibits central nervous system stimulating effects”, the “non-REM sleep RDI (respiratory disturbance incidents)” value (shortened to “non-REM sleep RDI”) ([1]; 100 mg/kg i.v.) is given as 8 per hour and the Arousal index ([1]; 100 mg/kg i.v.) is given as 16. The “REM sleep RDI (respiratory disturbance incidents)” value ([1]; 100 mg/kg i.v.) was 53 per hour, the “Lowest O2 saturation” value ([1]; 100 mg/kg i.v.) was 92 and the Mean sleep efficiency ([1]; 100 mg/kg i.v.) was 41%. The “non-REM sleep-disordered breathing events, result in words” value ([1]; 200 mg/kg and above, i.v.) was “significant reduction in non-REM sleep-disordered breathing events”, the “non-REM sleep RDI” value ([1]; 200 mg/kg i.v., p < 0.05) was 0 per hour and the Arousal index ([1]; 200 mg/kg i.v.) was 7. For the same compound, the “REM sleep RDI (respiratory disturbance incidents)” value ([1]; 200 mg/kg i.v.) was 70 per hour, the “Lowest O2 saturation” value ([1]; 200 mg/kg i.v.) was 86 and the Mean sleep efficiency ([1]; 200 mg/kg i.v.) was 37%. The “REM sleep occurrence, result in words” value ([1]; 400 mg/kg and 800 mg/kg, i.v.) was “the animal did not enter REM sleep”, the “non-REM sleep RDI” value ([1]; 400 mg/kg i.v.) was 4 per hour and the Arousal index ([1]; 400 mg/kg i.v.) was 12. For the same compound, the “Lowest O2 saturation” value ([1]; 400 mg/kg i.v.) was 92, the Mean sleep efficiency ([1]; 400 mg/kg i.v.) was 40% and the “non-REM sleep RDI” value ([1]; 800 mg/kg i.v., p < 0.05) was 2 per hour. For the same compound, the Arousal index ([1]; 800 mg/kg i.v., p < 0.05) was 6, the “Lowest O2 saturation” value ([1]; 800 mg/kg i.v.) was 93 and the Mean sleep efficiency ([1]; 800 mg/kg i.v.) was 38%. For the same compound, the “Dose dependence of non-REM breathing-decline episodes, result in words” value ([1]; 100 to 800 mg/kg i.v.) was “dose-dependent reduction in the number of episodes where breathing declines during non-REM sleep”, the “Number of arousals per hour, result in words” value ([1]; i.v., versus saline) was “did reduce the number of arousals per hour” and the “Oxyhemoglobin saturation during breathing episodes, result in words” value ([1]; i.v., versus saline) was “no effect on oxyhemoglobin saturation during breathing episodes”. The “Sleep efficiency, result in words” value ([1]; i.v., versus saline) was “did not affect sleep efficiency”, the “REM sleep RDI, result in words” value ([1]; lower dose levels, i.v.) was “there does not appear to have been an impact on REM sleep RDI” and the “Awakening / sleep pattern, result in words” value ([2]; versus saline control) was “awaken less frequently and thus exhibit markedly better consolidated sleep patterns”. For the same compound, the “Reduction in sleep disordered breathing” value ([2]; versus saline control) was “approximately 50%”, the “Sleep depth, result in words” value ([2]; versus saline control) was “sleep may be somewhat shallower” and the “Total sleep time, result in words” value ([2]; versus saline control) was “only a slight reduction in total sleep time”. The “Sleep disordered breathing index (SDBI), average” value ([2]; Average of 5 dogs, saline control 15.9 ± 11) was 8.7 ± 10, the “Total sleep time (TST), average” value ([2]; Average of 5 dogs, saline control 20.9 ± 8.3) was 16.4 ± 8.5% and the “Sleep latency, average” value ([2]; Average of 5 dogs, saline control 91.4 ± 14) was 142 ± 61.4 min. The “Sleep latency (minutes until onset of non-REM sleep)” value ([2]; Test dog 1) was 47 min, the “Sleep disordered breathing index (SDBI)” value ([2]; Test dog 1) was 7.2 and the “Total sleep time (TST)” value ([2]; Test dog 1) was 18.5%. For the same compound, the “Sleep latency (minutes until onset of non-REM sleep)” value ([2]; Test dog 2) was 149 min, the “Sleep disordered breathing index (SDBI)” value ([2]; Test dog 2) was 8.2 and the “Total sleep time (TST)” value ([2]; Test dog 2) was 17.0%. For the same compound, the “Sleep latency (minutes until onset of non-REM sleep)” value ([2]; Test dog 3) was 145 min, the “Sleep disordered breathing index (SDBI)” value ([2]; Test dog 3) was 2.6 and the “Total sleep time (TST)” value ([2]; Test dog 3) was 26.7%. For the same compound, the “Sleep latency (minutes until onset of non-REM sleep)” value ([2]; Test dog 4) was 150 min, the “Sleep disordered breathing index (SDBI)” value ([2]; Test dog 4) was 0.0 and the “Total sleep time (TST)” value ([2]; Test dog 4) was 17.0%. The “Sleep latency (minutes until onset of non-REM sleep)” value ([2]; Test dog 5) was 219 min, the “Sleep disordered breathing index (SDBI)” value ([2]; Test dog 5) was 25.7 and the “Total sleep time (TST)” value ([2]; Test dog 5) was 3.0%. The Water consumption (Sprague-Dawley rats; 5 mg/kg/day or above i.v., from day 2-3 until about week 4) was “increased in both sexes”, the “Day by which polyuria disappeared” value (Sprague-Dawley rats; 5 mg/kg/day or higher i.v.) was 4 to 28 days and the “Time of polyuria peak” value (Sprague-Dawley rats; 5 mg/kg/day or higher i.v., from day 0-3) was “peaked at about one hour after dosing”. The Transient polyuria (Sprague-Dawley rats; 5 mg/kg/day or higher i.v., males and females) was “almost all males and females showed transient polyuria”, the Mortality (Sprague-Dawley rats; 0.05, 0.5, 5 and 50 mg/kg/day i.v., administration and recovery periods) was “no death occurred” and the “Hematological changes relative to normal range” value (Sprague-Dawley rats; 50 mg/kg/day i.v., both sexes) was “within the range of normal physiological variations”. For the same compound, the “Red blood cell count, hemoglobin and hematocrit” value (Sprague-Dawley rats; 50 mg/kg/day i.v., both sexes) was “increasing tendency in red blood cell count, hemoglobin and hematocrit”, the “Total white blood cell count” value (Sprague-Dawley rats; 50 mg/kg/day i.v., both sexes) was “decreasing tendency in total white blood cell count” and the Systemic tremor (Sprague-Dawley rats; 50 mg/kg/day i.v., both sexes, from day 0) was “systemic tremor was observed transiently during the injection in both sexes”. The “Day by which systemic tremor disappeared” value (Sprague-Dawley rats; 50 mg/kg/day i.v., females) was no more than 4 days, the “Day by which systemic tremor disappeared” value (Sprague-Dawley rats; 50 mg/kg/day i.v., males) was no more than 6 days and the “Reversibility of observed changes” value (Sprague-Dawley rats; after discontinuing administration, four-week recovery) was “All observed changes were reversed by discontinuing administration”. The “Incidence of hypertrophy of serous cells in the submaxillary gland (histopathology)” value (Sprague-Dawley rats; both sexes, all treatment groups, i.v.) was “showed dose-dependency in both sexes of all treatment groups”, the “Food consumption and body weight changes” value (Sprague-Dawley rats; females, i.v.) was “unremarkable” and the Blood biochemical parameters (Sprague-Dawley rats; i.v.) was “No treatment-related abnormalities were observed”. For the same compound, the “Gross changes at autopsy” value (Sprague-Dawley rats; i.v.) was “no treatment-related grossly abnormal changes”, the “Histopathology of other organs (light microscopy)” value (Sprague-Dawley rats; i.v.) was “no remarkable changes were shown at the light microscopic level” and the “Liver and kidney electron microscopical examination” value (Sprague-Dawley rats; i.v.) was “nor were there any abnormal changes in the liver or kidney”. The Other hematological parameters (Sprague-Dawley rats; i.v.) was “not related to the dose”, the “Urinary findings (other than urine volume)” value (Sprague-Dawley rats; i.v.) was “unremarkable” and the Other clinical signs (Sprague-Dawley rats; i.v., administration and recovery periods) was “no other remarkable clinical signs”. For the same compound, the Urine volume (Sprague-Dawley rats; males and females, 5 mg/kg/day or above i.v., week 2 and 5) was “increase in urine volume”, the Body weight gain (Sprague-Dawley rats; males, particularly 0.5, 5 and 50 mg/kg/day i.v.) was “body weight gain was suppressed in males” and the Food consumption (Sprague-Dawley rats; treated males, versus control males, i.v.) was “tended to decrease food consumption”.
